Data on 29 molecules can be found in US9006228B2 (Merck Sharp & Dohme Corp., priority 2011, dated 2015).

This assay has as its target T1, human GPR119 (Homo sapiens, UniProt Q8TDV5).
T1 sequence (Q8TDV5 1-308 limits assumed): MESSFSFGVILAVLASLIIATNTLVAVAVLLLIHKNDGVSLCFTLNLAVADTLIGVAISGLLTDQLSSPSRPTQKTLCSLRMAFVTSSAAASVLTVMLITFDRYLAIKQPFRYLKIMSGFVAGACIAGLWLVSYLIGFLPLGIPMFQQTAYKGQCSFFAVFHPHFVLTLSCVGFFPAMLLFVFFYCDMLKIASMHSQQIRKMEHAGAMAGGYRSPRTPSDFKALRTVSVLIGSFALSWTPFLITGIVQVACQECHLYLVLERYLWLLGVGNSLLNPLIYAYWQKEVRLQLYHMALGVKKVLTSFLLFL
Briefly: Measurement of GPR119 signaling (cAMP assay; LANCE kit or HTRF) in HEK293 cells stably transfected with human GPR119. The conditions noted are these: agonist-stimulated cAMP in HEK293 cells expressing human GPR119. It is filed as cell-based. On the procedure:
Measurement of GPR119 Signaling Using LANCE 384-Well cAMP Kit
The adenylate cyclase assay was constructed following the LANCE™ cAMP Kit (Perkin Elmer, AD0264) instructions. […] The reaction was stopped by incubating with the supplied detection buffer containing the europium chelate of the Eu-SA/Biotin-cAMP tracer for 3 hours. The assay was performed in duplicate in a 384 well plate for duplicate plates. Fluorescence at 665 nm was measured using a PHERAstar instrument. Basal activity was determined using a DMSO control and maximum response was defined as cAMP stimulation produced by an internal agonist control. Standard cAMP concentrations were assayed concurrently for conversion of fluorescence signal to cAMP level. The data was analyzed using 4-parameter curve fit in Microsoft Excel.
Measurement of GPR119 Signaling Using a Cyclic AMP (cAMP) Homogenous Time Resolved Fluorescence (HTRF) Assay
Chinese hamster ovary (CHO) cell lines stably transfected with the permissive guanine nucleotide binding protein alpha 15 (Gα15) and murine GPR119 were maintained in DMEM media containing FBS, penicillin-streptomycin, puromycin, and G418 (geneticin). […] Agonist activation of the GPR119 receptor was measured in receptor transfected cells described above, treated with compounds of this invention, using a commercial homogenous time resolved fluorescence (HTRF) kit for measurement of cAMP (CisBio, Bedford, Mass.). The assay was performed in 96-well half-volume plates (murine) or 384-well plates (human) following the manufacturers instructions. Briefly, suspended cells were incubated with a dose titration of test compound at RT for 60 min, lysed, and incubated with HTRF reagents for an additional 60 min. The plate was read using an Envision multilabel reader (Perkin Elmer) adjusted to read time resolved fluorescence and the cAMP concentrations were extrapolated from a cAMP calibration curve. […] The concentration of test compound required to stimulate a half-maximal response (EC50), and efficacy as compared to an internal agonist control, was determined from a sigmoidal 4-parameter curve fit of the resulting plot of normalized activity versus compound concentration.
With `COC(C)c1cnc(N2CCC([C@H]3C[C@H]3COCc3ccc(S(C)(=O)=O)cc3F)CC2)nc1` (single isomer, unassigned) [Example 125], the half-maximal effective concentration (EC50) was found to be 0.36 nM.
The molecule `COC(C)c1cnc(N2CCC([C@H]3C[C@H]3COCc3ccc(S(C)(=O)=O)cc3F)CC2)nc1` (single isomer, unassigned) [Example 126] yielded an EC50 of 1.5 nM.
`COC(C)c1cnc(N2CCC([C@H]3C[C@H]3COCc3ccc(S(C)(=O)=O)c(F)c3)CC2)nc1` (single isomer, unassigned) [Example 130] showed an EC50 of 0.72 nM.
With `COC(C)c1cnc(N2CCC([C@H]3C[C@H]3COCc3ccc(S(C)(=O)=O)c(F)c3)CC2)nc1` (single isomer, unassigned) [Example 131], the EC50 was 1.03 nM.
As for `CS(=O)(=O)c1ccc(COC[C@@H]2C[C@@H]2C2CCN(c3ncc(Cl)cn3)CC2)nc1` [Example 1, 5-chloro-2-{4-[(1R,2R)-2-({[5-(methylsulfonyl)pyridin-2-yl]methoxy}methyl)cyclopropyl]piperidin-1-yl}pyrimidine], the figure is 8.7 nM.
`Cc1cnc(N2CCC([C@H]3C[C@H]3COCc3ccc(S(C)(=O)=O)cn3)CC2)nc1` [Example 2, 5-methyl-2-{4-[(1R,2R)-2-({[5-(methylsulfonyl)pyridin-2-yl]methoxy}methyl)cyclopropyl]piperidin-1-yl}pyrimidine] showed a half-maximal effective concentration (EC50) of 10.8 nM. The EC50 values of the last two molecules are within 1.5-fold of each other.
`CCc1cnc(N2CCC([C@H]3C[C@H]3COCc3ccc(S(C)(=O)=O)cn3)CC2)nc1` [Example 3, 5-ethyl-2-{4-[(1R,2R)-2-({[5-(methylsulfonyl)pyridin-2-yl]methoxy}methyl)cyclopropyl]piperidin-1-yl}pyrimidine]: the EC50 came to 1.5 nM.
As for `CS(=O)(=O)c1ccc(COC[C@@H]2C[C@@H]2C2CCN(c3ncc(Br)cn3)CC2)nc1` [Example 4, 5-bromo-2-{4-[(1R,2R)-2-({[5-(methylsulfonyl)pyridin-2-yl]methoxy}methyl)cyclopropyl]piperidin-1-yl}pyrimidine], the figure is 1 nM.
To `CS(=O)(=O)c1ccc(COC[C@@H]2C[C@@H]2C2CCN(c3ncc(F)cn3)CC2)nc1` [Example 5, 5-fluoro-2-{4-[(1R,2R)-2-({[5-(methylsulfonyl)pyridin-2-yl]methoxy}methyl)cyclopropyl]piperidin-1-yl}pyrimidine] belongs 21 nM; to `COc1cnc(N2CCC([C@H]3C[C@H]3COCc3ccc(S(C)(=O)=O)cn3)CC2)nc1` [Example 6, 5-methoxy-2-{4-[(1R,2R)-2-({[5-(methylsulfonyl)pyridin-2-yl]methoxy}methyl)cyclopropyl]piperidin-1-yl}pyrimidine], 15 nM; to `CS(=O)(=O)c1ccc(COC[C@@H]2C[C@@H]2C2CCN(c3ncc(-c4cn[nH]c4)cn3)CC2)nc1` [Example 7], 15.6 nM.
As for `CCCOC(=O)N1CCC([C@H]2C[C@H]2COCc2ccc(S(C)(=O)=O)cc2)CC1` [Example 8, propyl 4-[(1R,2R)-2-({[4-(methylsulfonyl)benzyl]oxy}methyl)cyclopropyl]piperidine-1-carboxylate], the figure is 16 nM; as for `CC(C)OC(=O)N1CCC([C@H]2C[C@H]2COCc2ccc(S(C)(=O)=O)cc2)CC1` [Example 9, isopropyl 4-[(1R,2R)-2-({[4-(methylsulfonyl)benzyl]oxy}methyl)cyclopropyl]piperidine-1-carboxylate], 16 nM; as for `CC(C)COC(=O)N1CCC([C@H]2C[C@H]2COCc2ccc(S(C)(=O)=O)cc2)CC1` [Example 10, isobutyl 4-[(1R,2R)-2-({[4-(methylsulfonyl)benzyl]oxy}methyl)cyclopropyl]piperidine-1-carboxylate], 8.2 nM.
Consider `CC1(OC(=O)N2CCC([C@H]3C[C@H]3COCc3ccc(S(C)(=O)=O)cc3)CC2)CC1` [Example 11, 1-methylcyclopropyl 4-[(1R,2R)-2-({[4-(methylsulfonyl)benzyl]oxy}methyl)cyclopropyl]piperidine-1-carboxylate], for which the EC50 came to 3.9 nM.
To `CS(=O)(=O)c1ccc(COC[C@@H]2C[C@@H]2C2CCN(C(=O)OC3CCC3)CC2)cc1` [Example 12, cyclobutyl 4-[(1R,2R)-2-({[4-(methylsulfonyl)benzyl]oxy}methyl)cyclopropyl]piperidine-1-carboxylate] belongs 8.2 nM; to `CS(=O)(=O)c1ccc(COC[C@@H]2C[C@@H]2C2CCN(C(=O)OCC3CC3)CC2)cc1` [Example 13, cyclopropylmethyl 4-[(1R,2R)-2-({[4-(methylsulfonyl)benzyl]oxy}methyl)cyclopropyl]piperidine-1-carboxylate], 3.2 nM; to `CS(=O)(=O)c1ccc(COC[C@@H]2C[C@@H]2C2CCN(c3ncc(Cl)cn3)CC2)cc1` [Example 14, 5-chloro-2-{4-[(1R,2R)-2-({[4-(methylsulfonyl)benzyl]oxy}methyl)cyclopropyl]piperidin-1-yl}pyrimidine], 0.7 nM.
As for `COc1cnc(N2CCC([C@H]3C[C@H]3COCc3ccc(S(C)(=O)=O)cc3)CC2)nc1` [Example 15, 5-methoxy-2-{4-[(1R,2R)-2-({[4-(methylsulfonyl)benzyl]oxy}methyl)cyclopropyl]piperidin-1-yl}pyrimidine], the figure is 0.4 nM; as for `CS(=O)(=O)c1ccc(COC[C@@H]2C[C@@H]2C2CCN(c3ncc(F)cn3)CC2)cc1` [Example 16, 5-fluoro-2-{4-[(1R,2R)-2-({[4-(methylsulfonyl)benzyl]oxy}methyl)cyclopropyl]piperidin-1-yl}pyrimidine], 5.8 nM.
As for `COC(=O)c1cnc(N2CCC([C@H]3C[C@H]3COCc3ccc(S(C)(=O)=O)cc3)CC2)nc1` [Example 17, methyl 2-{4-[(1R,2R)-2-({[4-(methylsulfonyl)benzyl]oxy}methyl)cyclopropyl]piperidin-1-yl}pyrimidine-5-carboxylate], the figure is 20 nM; as for `CS(=O)(=O)c1ccc(COC[C@@H]2C[C@@H]2C2CCN(c3ncc(C4CC4)cn3)CC2)cc1` [Example 18, 5-cyclopropyl-2-{4-[(1R,2R)-2-({[4-(methylsulfonyl)benzyl]oxy}methyl)cyclopropyl]piperidin-1-yl}pyrimidine], 1 nM; as for `CC(C)Cc1cnc(N2CCC([C@H]3C[C@H]3COCc3ccc(S(C)(=O)=O)cc3)CC2)nc1` [Example 19, 5-isobutyl-2-{4-[(1R,2R)-2-({[4-(methylsulfonyl)benzyl]oxy}methyl)cyclopropyl]piperidin-1-yl}pyrimidine], 0.13 nM.
Consider `CCc1cnc(N2CCC([C@H]3C[C@H]3COCc3ccc(S(C)(=O)=O)cc3)CC2)nc1` [Example 20, 5-ethyl-2-{4-[(1R,2R)-2-({[4-(methylsulfonyl)benzyl]oxy}methyl)cyclopropyl]piperidin-1-yl}pyrimidine], for which the EC50 was determined as 0.74 nM.
To `Cc1cnc(N2CCC([C@H]3C[C@H]3COCc3ccc(S(C)(=O)=O)cc3)CC2)nc1` [Example 21, 5-methyl-2-{4-[(1R,2R)-2-({[4-(methylsulfonyl)benzyl]oxy}methyl)cyclopropyl]piperidin-1-yl}pyrimidine] belongs 1.6 nM; to `CCCc1cnc(N2CCC([C@H]3C[C@H]3COCc3ccc(S(C)(=O)=O)cc3)CC2)nc1` [Example 22, 2-{4-[(1R,2R)-2-({[4-(methylsulfonyl)benzyl]oxy}methyl)cyclopropyl]piperidin-1-yl}-5-propylpyrimidine], 0.3 nM; to `CC(C)c1cnc(N2CCC([C@H]3C[C@H]3COCc3ccc(S(C)(=O)=O)cc3)CC2)nc1` [Example 23, 5-isopropyl-2-{4-[(1R,2R)-2-({[4-(methylsulfonyl)benzyl]oxy}methyl)cyclopropyl]piperidin-1-yl}pyrimidine], 0.26 nM.
For the molecule `CC(C)c1noc(N2CCC([C@H]3C[C@H]3COCc3ccc(S(C)(=O)=O)cc3)CC2)n1` [Example 24, 1-(3-isopropyl-1,2,4-oxadiazol-5-yl)-4-[(1R,2R)-2-({[4-(methylsulfonyl)benzyl]oxy}methyl)cyclopropyl]piperidine], the EC50 turned out to be 0.92 nM.
On to `CC(C)c1noc(N2CCC([C@H]3C[C@H]3COCc3ccc(S(=O)(=O)C4CC4)cc3)CC2)n1` [Example 25], for which the EC50 is 18 nM.

The term EC50 denotes the midpoint of the concentration-response curve. Low readings indicate a more potent agent, high ones a less potent agent.
